Test: Solubility in cocoa butter/lecithin mixtures
Type: physicochemical
Details: oil or lipid

solubility: < 15 mg/mL
Structure (SMILES): Cc1ccccc1-c1cc(N2CCOCC2)ncc1N(C)C(=O)C(C)(C)c1cc(C(F)(F)F)cc(C(F)(F)F)c1 [2-(3,5-bis-trifluoromethyl-phenyl)-N-methyl-N-(6-morpholin-4-yl-4-o-tolyl-pyridin-3-yl)-isobutyramide]

Reference: patent publication US6719996B2, “Galenic composition for low bioavailability medicaments” (Hoffmann-La Roche Inc., priority 2000, dated 2004)
